# Assay results as given in paper PMC11469493, “Luteolin target HSPB1 regulates endothelial cell ferroptosis to protect against radiation vascular injury” (PLOS ONE, 2024).
# Columns and labels:
# HSPB1 [1] = molecular target: T1, HSPB1 (Homo sapiens, UniProt P04792); test: DARTS with Western blot (protection from protease); type: biochemical; set-up: endogenous protein in lysate, detected by Western blot after protease digestion (DARTS); conditions: cell lysate, room temperature, 20 min with luteolin, protease digestion 15 min
# HSPB1 [2] = molecular target: T1, HSPB1; test: SPR (Reichert 4SPR, immobilised HSPB1); type: binding; set-up: protein immobilised by EDC/NHS on dextran SPR chip; conditions: read-out: affinity
# T1 sequence (P04792 whole entry): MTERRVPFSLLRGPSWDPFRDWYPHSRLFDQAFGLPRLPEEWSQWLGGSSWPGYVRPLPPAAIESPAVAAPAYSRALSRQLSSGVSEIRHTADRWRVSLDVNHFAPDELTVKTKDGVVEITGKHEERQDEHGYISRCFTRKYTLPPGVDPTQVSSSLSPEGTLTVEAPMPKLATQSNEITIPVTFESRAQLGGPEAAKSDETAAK
smiles,measurement,setting,value
O=c1cc(-c2ccc(O)c(O)c2)oc2cc(O)cc(O)c12 [luteolin],DARTS with Western blot (protection from protease),HSPB1 [1],addition of luteolin under the same protease concentration conditions reduced the hydrolysis of HSPB1
same,Kd,HSPB1 [2],23.7 µM
